# Experimental data: patent US20120283802A1, “FAR-INFRARED RADIATION IN USE OF IMPROVING PATENCY OF ARTERIOVENOUS FISTULA, DECREASING FAILURE OF ARTERIOVENOUS FISTULA MATURATION, AND PREVENTING AND/OR AMELIORATING PERIPHERAL ARTERY DISEASES” (priority 2007, published 2012)
# How the values were obtained:
# [1] = system: VCAM-1 expression in HUVECs; test: TNF-α-induced VCAM-1 expression in HUVECs, western blot; format: cell-based, Human
# Method: Human umbilical vein endothelial cells (HUVEC) (Walkersville, Md.) were serially cultured on gelatin-coated dishes and propagated in M199 medium supplemented with 20% bovine calf serum, 2 mM L-glutamine, 50 μg/ml endothelial cell growth factor, 90 μg/ml heparin, and 100 U/ml of penicillin and streptomycin. The cells were treated with FIR for 10 min, 20 min, 40 min using WS™ TY101 FIR emitter (WS Far Infrared Medical Technology Co., Ltd., Taipei, Taiwan). The top emitter was set at a height of 25 cm above the surface of the cells. After FIR treatment, the cells were collected at 0 h, 2 h, 4 h, 6 h, 24 h, and 48 h, and then the expression of HO-1 was analyzed by western blot and quantified by laser densitometry. The cells were lysed in a sample buffer (125 mM Tris [pH 6.8], 12.5% glycerol, 2% SDS, 50 mM sodium fluoride, and trace bromophenol blue) and proteins were separated by SDS-PAGE. Following transfer to a nitrocellulose membrane, blots were blocked with PBS and nonfat milk (5%) and then incubated with antibodies directed against HO-1 (1:500). Membranes were then washed in PBS, incubated with horseradish peroxidase-conjugated goat anti-rabbit or anti-goat antibody and developed with commercial chemoluminescence reagents (Amersham, Arlington Heights, Ill.). […]
# The expression of VCAM-1 was analyzed under different combinations of TNFα, FIR, HO-1 inhibitor by a western blot. […]
# HO-1 expression = HO-1 expression by western blot quantified by laser densitometry; format: cell-based, Human; details: relative to control cells; SnPP 20 μM per Table 2
# Method: Human umbilical vein endothelial cells (HUVEC) (Walkersville, Md.) were serially cultured on gelatin-coated dishes and propagated in M199 medium supplemented with 20% bovine calf serum, 2 mM L-glutamine, 50 μg/ml endothelial cell growth factor, 90 μg/ml heparin, and 100 U/ml of penicillin and streptomycin. The cells were treated with FIR for 10 min, 20 min, 40 min using WS™ TY101 FIR emitter (WS Far Infrared Medical Technology Co., Ltd., Taipei, Taiwan). The top emitter was set at a height of 25 cm above the surface of the cells. After FIR treatment, the cells were collected at 0 h, 2 h, 4 h, 6 h, 24 h, and 48 h, and then the expression of HO-1 was analyzed by western blot and quantified by laser densitometry. […]
# U937 cells were classified into 10 groups (F, T, TF, STF, HTF, NTF, S, H, N, or C) according to the combination of different treatment, and the experimental conditions of groups are listed in Table 2. […] After 1 hour of incubation, nonadherent monocytes were removed by PBS washing and the radioactivity associated with adherent cells were quantified by scintillation spectrometry after lysis with 0.2% SDS/0.2 N NaOH. Additionally, the expression of HO-1 was analyzed by western blot and quantified by laser densitometry. […]
structure (smiles),measurement,setting,value
"C=Cc1c2[n-]c(c1C)/C=c1\[n-]/c(c(C)c1C=C)=C\c1[n-]c(c(CCC(=O)O)c1C)/C=c1\[n-]c(c(C)c1CCC(=O)O)=C2.[Sn+4] [SnPP, tin protoporphyrin]",FIR-induced inhibitory effect of VCAM-1 expression,"[1]; TNF-α 100 ng/ml + 40 min FIR, SnPP 10 μM (group 3) and 20 μM (group 4), higher expression at 20 μM",reversed
same,expression of VCAM-1,"[1]; single treatment with SnPP 20 μM, without pre-treatment with TNF-α (group 6)",did not induce
same,"HO-1 expression, of that of the control cells",HO-1 expression,approximately 20%
